Tested on: μpatterned hiPSC-CMs
Assay: sarcomere length (sl) and sarcomere shortening (ss) from videos of labeled myofibrils
Type: cell-based, human
Conditions: for average values of sl (sarcomere length): single cell with labeled myofibrils (FIG. 7A, 7E)
Experimental: We analyzed videos of beating patterned hiPSC-CMs with LifeAct-labeled myofibrils (Ribeiro 2015a) to quantify the organization and dynamics of sarcomeres along myofibrils. Sarcomere shortening and movement during the contractile cycle was determined from analyzing how the size of all labeled sarcomeres in a single hiPSC-CM varies during each of its contractile cycles. The minimal length that separates two proximal Z-lines defines sarcomere size. LifeAct labels actin between Z-lines, which correspond to dark lines in LifeAct-labeled myofibrils. (Ribeiro 2015a) Therefore, the minimal distance between adjacent dark lines in LifeAct-labeled myofibrils defines sarcomere size. We used four different approaches to quantify sarcomere size along LifeAct-labeled myofibrils from frames of single beating hiPSC-CMs (FIG. 12) and used the second approach for performing better when analyzing videos with minimal user intervention.
The second approach (FIG. 12B) is a novel method that we developed to determine sarcomere lengths in each frame without the need of curve-fitting procedures or radial Fourier transforms. The approach consists of automatically measuring the length of the segment between adjacent Z-lines that is parallel to the direction of myofibril alignment (FIG. 15). The algorithm for this approach measured the length from Z-line i to Z-line i+1 using information on myofibril orientation in the region around Z-line i and Z-line i+1 and considering a skeleton of sarcomeres generated as previously detailed for the first approach. The algorithm developed first a map of all points that compose the sarcomere skeleton and each point was taken once as a starting location of a path along the direction of myofibril orientation that stopped when another Z-line in the skeleton was reached (FIG. 15). The length between adjacent Z-lines was therefore defined as the Euclidean distance between start and end points calculated with this method (FIG. 15). The path was calculated pixel by pixel within the skeletonized image. For each new pixel of the path, the algorithm evaluated what the other pixel of the path was based on the local orientation of the myofibril. For pixels that were starting points or pixels already in a path, the local orientation angle of myofibrils was taken as the deciding factor to determine the next path pixel. In the algorithm, we particularly defined that the y direction of the path could be chosen freely, but only pixels in the +x direction could be candidates for the next element of the path (FIG. 15). This definition derived from the fact that every point composing the skeleton was considered as a starting point and because orientations of myofibrils are in the [0,Th] range. In relation to a known point of a path, the next neighboring pixel to be included as the next element of that path could be the pixel on the right, on the top, on the bottom, on the top right or on the bottom right (FIG. 15-B). Given this condition, a 10° angle or a 0° angle of known myofibril orientation lead to the same decision for the next pixel to include in the path: the pixel on the right. We estimated the local orientation of myofibrils through the MATLAB-written code RIDGEORIENT. (Kovesi 2000) This tool indicates the principle ridge direction through local gradient variations. By definition, the gradient is […] to the main orientation. (Krause 2009)
The global orientation of a myofibril between Z-lines was also taken in consideration for deciding the next pixel in the path between Z-lines (FIG. 15) because small angles can add up during the extending of the line defined by the path and better reveal the real myofibril orientation. For example, starting at a pixel on a Z-line (x1, y1) with a local orientation angle θ1=10°, the next pixel would have to be (x1+1, y1). If θ2=10°, the next pixel would again be to the right, adding (x1+2, y1) to the path. […]

SMILES	minimal average sl (0.1 μM isoproterenol)	ss (sarcomere shortening) (0.1 μM isoproterenol (FIG. 7D))	minimal average sl (1 μM isoproterenol)	increase of ss (sarcomere shortening) (1 μM isoproterenol (FIG. 7D))	maximal mean values of sl (1 μM isoproterenol, relative to before adding (FIG. 7B))	average values of sl (sarcomere length)	maximal average sl (chronic and acute effects of omecamtiv mecarbil (FIG. 7F))	minimum average sl (chronic and acute effects of omecamtiv mecarbil (FIG. 7G))	average ss (chronic and acute effects of omecamtiv mecarbil (FIG. 7H))
CC(C)NCC(O)c1ccc(O)c(O)c1 (stereo not shown) [isoproterenol]	decreased	considerably increased	decrease even more	not with 1 μM	decreased	decreased			
COC(=O)N1CCN(Cc2cccc(NC(=O)Nc3ccc(C)nc3)c2F)CC1 [omecamtiv mecarbil]						decreased	decrease	decrease	decrease

— patent US20180106782A1, “HIGH THROUGHPUT CARDIOTOXICITY SCREENING PLATFORM” (The Board of Trustees of the Leland Stanford Junior …, priority 2016, published 2018)
